# Results taken from ChEMBL document CHEMBL1149521, “Synthesis of novel keto-ACE analogues as domain-selective angiotensin I-converting enzyme inhibitors” (Bioorg Med Chem Lett, 2006).
# Legend:
# [1] = Selectivity for rabbit testis ACE C domain over human ACE N domain
# [2] = target: Angiotensin-converting enzyme (Homo sapiens, UniProt P12821); experiment: Inhibition of recombinant ACE N domain
# [3] = target: T1, Angiotensin-converting enzyme (Oryctolagus cuniculus, UniProt P12822); experiment: Inhibition of rabbit testis recombinant ACE C domain
# T1 sequence (P12822 whole entry): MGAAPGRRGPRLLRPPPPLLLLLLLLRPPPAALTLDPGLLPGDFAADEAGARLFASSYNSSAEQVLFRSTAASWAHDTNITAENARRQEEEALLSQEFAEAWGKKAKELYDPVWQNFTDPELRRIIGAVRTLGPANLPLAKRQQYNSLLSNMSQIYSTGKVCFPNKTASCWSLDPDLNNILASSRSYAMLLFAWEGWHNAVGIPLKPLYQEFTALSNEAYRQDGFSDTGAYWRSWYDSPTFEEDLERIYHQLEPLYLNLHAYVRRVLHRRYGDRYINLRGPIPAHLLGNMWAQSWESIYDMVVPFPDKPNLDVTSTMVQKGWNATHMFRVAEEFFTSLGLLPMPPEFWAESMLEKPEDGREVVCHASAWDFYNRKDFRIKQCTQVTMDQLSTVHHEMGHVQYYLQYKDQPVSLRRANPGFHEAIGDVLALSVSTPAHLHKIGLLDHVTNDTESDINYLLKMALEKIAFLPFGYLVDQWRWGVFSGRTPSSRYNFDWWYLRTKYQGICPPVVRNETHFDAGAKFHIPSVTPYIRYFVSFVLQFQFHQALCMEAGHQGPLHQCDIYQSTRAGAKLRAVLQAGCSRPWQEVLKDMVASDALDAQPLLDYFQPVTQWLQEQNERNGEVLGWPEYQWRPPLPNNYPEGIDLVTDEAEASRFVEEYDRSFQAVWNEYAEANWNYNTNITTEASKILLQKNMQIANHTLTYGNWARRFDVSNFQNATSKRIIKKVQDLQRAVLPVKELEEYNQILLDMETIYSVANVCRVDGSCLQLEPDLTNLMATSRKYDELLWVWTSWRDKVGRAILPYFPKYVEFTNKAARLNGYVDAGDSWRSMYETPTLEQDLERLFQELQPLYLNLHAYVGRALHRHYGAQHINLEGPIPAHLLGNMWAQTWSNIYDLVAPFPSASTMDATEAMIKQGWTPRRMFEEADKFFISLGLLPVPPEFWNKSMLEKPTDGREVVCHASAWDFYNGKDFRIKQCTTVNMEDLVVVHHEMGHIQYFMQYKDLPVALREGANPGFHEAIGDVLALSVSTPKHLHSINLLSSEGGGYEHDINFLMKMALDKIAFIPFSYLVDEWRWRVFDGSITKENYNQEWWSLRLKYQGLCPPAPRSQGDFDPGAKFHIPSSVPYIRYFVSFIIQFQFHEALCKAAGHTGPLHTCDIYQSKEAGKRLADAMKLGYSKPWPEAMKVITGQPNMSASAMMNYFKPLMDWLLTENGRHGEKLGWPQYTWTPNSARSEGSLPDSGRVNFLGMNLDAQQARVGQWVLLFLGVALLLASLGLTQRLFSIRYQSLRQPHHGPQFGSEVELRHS
# Chain of Angiotensin-converting enzyme (Homo sapiens, UniProt P12821) (P12821 whole entry): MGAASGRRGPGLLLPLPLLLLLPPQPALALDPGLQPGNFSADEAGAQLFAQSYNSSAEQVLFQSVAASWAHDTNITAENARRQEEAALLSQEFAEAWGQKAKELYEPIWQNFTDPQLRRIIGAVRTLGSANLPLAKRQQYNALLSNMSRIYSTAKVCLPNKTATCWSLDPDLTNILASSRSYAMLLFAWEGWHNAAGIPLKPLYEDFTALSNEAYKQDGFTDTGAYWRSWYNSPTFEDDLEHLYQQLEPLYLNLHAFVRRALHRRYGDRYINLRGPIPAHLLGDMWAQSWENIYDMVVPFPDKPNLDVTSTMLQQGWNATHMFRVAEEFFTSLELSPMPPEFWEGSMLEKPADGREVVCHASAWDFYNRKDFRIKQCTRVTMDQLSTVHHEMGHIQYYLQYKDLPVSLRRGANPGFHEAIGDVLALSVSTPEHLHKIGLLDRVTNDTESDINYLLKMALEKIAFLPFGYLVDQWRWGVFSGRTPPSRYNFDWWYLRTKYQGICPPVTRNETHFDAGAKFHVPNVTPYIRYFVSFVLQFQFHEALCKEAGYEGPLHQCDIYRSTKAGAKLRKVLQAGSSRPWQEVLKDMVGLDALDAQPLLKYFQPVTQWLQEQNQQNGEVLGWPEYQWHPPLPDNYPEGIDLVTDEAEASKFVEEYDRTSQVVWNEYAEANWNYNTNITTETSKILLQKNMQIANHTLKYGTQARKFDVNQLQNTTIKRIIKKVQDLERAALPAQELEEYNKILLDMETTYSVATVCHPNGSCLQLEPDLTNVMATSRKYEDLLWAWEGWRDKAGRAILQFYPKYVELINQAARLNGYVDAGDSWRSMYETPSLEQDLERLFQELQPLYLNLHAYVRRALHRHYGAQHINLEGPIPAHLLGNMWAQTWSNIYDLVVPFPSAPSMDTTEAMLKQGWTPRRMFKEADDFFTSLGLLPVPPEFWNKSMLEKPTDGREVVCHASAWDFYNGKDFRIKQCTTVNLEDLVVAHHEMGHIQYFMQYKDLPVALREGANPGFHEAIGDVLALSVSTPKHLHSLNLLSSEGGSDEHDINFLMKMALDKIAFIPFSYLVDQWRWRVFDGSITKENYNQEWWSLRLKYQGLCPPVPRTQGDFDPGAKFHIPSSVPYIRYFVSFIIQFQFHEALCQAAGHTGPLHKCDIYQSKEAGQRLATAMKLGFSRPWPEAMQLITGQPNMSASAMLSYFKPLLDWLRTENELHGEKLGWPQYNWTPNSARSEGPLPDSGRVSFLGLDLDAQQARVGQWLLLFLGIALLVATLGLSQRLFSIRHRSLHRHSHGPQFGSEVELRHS
SMILES,Ratio Ki [1],Ki [2] [µM],Ki [3] [µM]
CC(C)(C)OC(=O)N[C@@H](Cc1ccccc1)C(=O)CCC(=O)N[C@@H](Cc1c[nH]c2ccccc12)C(=O)O,0.04,13.3,381
CC(C)(C)OC(=O)N[C@@H](Cc1ccccc1)C(=O)CCC(=O)N1CCC[C@H]1C(=O)O,0.2,,144
CC(C)(C)OC(=O)N[C@@H](Cc1ccccc1)C(=O)CCC(=O)N[C@@H](Cc1ccccc1)C(=O)O,0.1,43,313
NCCCC[C@H](N[C@@H](CCc1ccccc1)C(=O)O)C(=O)N1CCC[C@H]1C(=O)O [LISINOPRIL ANHYDROUS],,,0.051
O=C(CCC(=O)[C@H](Cc1ccccc1)NC(=O)c1ccccc1)N[C@@H](Cc1ccccc1)C(=O)O,3.6,,23.7
O=C(CCC(=O)[C@H](Cc1ccccc1)NC(=O)c1ccccc1)N[C@@H](Cc1c[nH]c2ccccc12)C(=O)O,245,,0.8
